Experiments:
Rattus norvegicus [1] = assay: Maximum increase in dP/dt when administered intravenously in rats at 3 mg/kg dose.; type: functional; settings: route intravenous
Felis catus [2] = organism: Felis catus; assay: Effective dose required to produce an increase in dP/dt5 by 1500 mmHg/s in cats; type: functional
Rattus norvegicus [3] = organism: Rattus norvegicus; assay: Effective dose required to produce an increase in dP/dt5 by 1500 mmHg/s in rats; type: functional
Canis familiaris [4] = assay: Maximum increase in dP/dt when administered intravenously in dogs at 0.3 mg/kg dose.; type: functional, Canis lupus familiaris; settings: route intravenous
Canis familiaris [5] = assay: Amount of time during which increase in administered orally in conscious dogs at 1 mg/kg; type: functional, Canis lupus familiaris; settings: route oral
Canis familiaris [6] = organism: Canis familiaris; assay: Effective dose required to produce an increase in dP/dt5 by 1500 mmHg/s in dogs; type: functional, Canis lupus familiaris
Rattus norvegicus [7] = assay: Maximum increase in dP/dt when administered intravenously in rats at 10 mg/kg dose.; type: functional; set-up: unit not given here; settings: route intravenous
Rattus norvegicus [8] = assay: Maximum increase in dP/dt when administered intravenously in rats at 1 mg/kg dose.; type: functional; set-up: unit not given here; settings: route intravenous
Felis catus [9] = assay: Maximum increase in dP/dt when administered intravenously in cats at 0.1 mg/kg dose.; type: functional; settings: route intravenous
Canis familiaris [10] = assay: Time after which maximum increase in contractility was observed when administered orally in conscious dogs at 1 mg/kg; type: functional, Canis lupus familiaris; settings: route oral
Rattus norvegicus [11] = assay: Maximum increase in dP/dt when administered intravenously in rats at 0.1 mg/kg dose.; type: functional; settings: route intravenous
Rattus norvegicus [12] = assay: Maximum increase in dP/dt when administered intravenously in rats at […] dose.; type: functional
Felis catus [13] = assay: Maximum increase in dP/dt when administered intravenously in cats at 3 mg/kg.; type: functional; settings: route intravenous
Canis familiaris [14] = assay: Maximum increase in dP/dt when administered intravenously in dogs at 1 mg/kg dose.; type: functional, Canis lupus familiaris; settings: route intravenous

| Compound | ED1.5 (Felis catus [2]) [mg/kg] | ED1.5 (Rattus norvegicus [3]) [mg/kg] | also measured |
| --- | --- | --- | --- |
| CC1(C)C(=O)Nc2cc3[nH]c(C(F)(F)F)nc3cc21 | 0.08 | 0.13 | Max (Rattus norvegicus [1]): 2.3 mHg s-1 |
| CN1C(=O)C(C)(C)c2cc3nc(-c4ccncc4)n(C)c3cc21 |  | >3 |  |
| Cn1c(O)nc2cc3[nH]c(O)nc3cc21 |  | >3 |  |
| CC1(C)C(=O)Nc2cc3nc(O)oc3cc21 |  | >3 |  |
| CCCn1c(O)nc2cc3[nH]c(-c4ccncc4)nc3cc21 |  | 1 | Max (Rattus norvegicus [1]): 1.6 mHg s-1 |
| CCn1c(O)nc2cc3[nH]c(-c4ccnnc4)nc3cc21 | 0.02 | 0.04 | Max (Rattus norvegicus [1]): 3.2 mHg s-1 |
| CC1(C)C(=O)Nc2cc3[nH]cnc3cc21 | 0.13 | 0.19 | Max (Rattus norvegicus [1]): 3.2 mHg s-1 |
| Oc1nc2cc3[nH]c(-c4ccncc4)nc3cc2s1 |  | 0.2 |  |
| Oc1nc2cc3nc(-c4ccncc4)[nH]c3cc2o1 | 0.06 | 0.52 | Max (Canis familiaris [4]): 2.6 mHg/s; Duration (Canis familiaris [5]): 0 h; ED1.5 (Canis familiaris [6]): 0.12 mg/kg; Max (Rattus norvegicus [7]): 4.1 |
| Cn1c(O)nc2cc3[nH]c(-c4ccnnc4)nc3cc21 |  | 0.19 | Duration (Canis familiaris [5]): 0 h; Max (Rattus norvegicus [8]): 2.7 |
| Cn1c(O)nc2cc3c(cc21)C(C)(C)C(=O)N3 | 0.02 | 0.03 | Max (Felis catus [9]): 2.1 mmHg s-1; Time (Canis familiaris [10]): 30 min; Max (Rattus norvegicus [11]): 2.4 mmHg s-1; Duration (Canis familiaris [5]): > 5 h |
| C=C(C)c1nc2cc3c(cc2[nH]1)C(C)(C)C(=O)N3 |  | >3 |  |
| Oc1nc2cc3[nH]c(-c4ccncc4)nc3cc2[nH]1 |  | >3 |  |
| CCCc1nc2cc3nc(O)oc3cc2[nH]1 |  | >3 |  |
| COc1cc([S+](C)[O-])ccc1-c1nc2cc3c(cc2[nH]1)C(C)(C)C(=O)N3 (stereo not given) |  | >3 |  |
| CC1(C)C(=O)Nc2cc3[nH]c(-c4cc5ccccc5[nH]4)nc3cc21 |  | >3 |  |
| CC1(C)C(=O)Nc2cc3[nH]c(C4CCCCC4)nc3cc21 |  | >3 |  |
| CC1(C)C(=O)Nc2cc3[nH]c(O)cc3cc21 |  | 0.11 | Max (Rattus norvegicus [12]): 2 mmHg s-1 |
| CC1(C)C(=O)Nc2cc3[nH]c(N)nc3cc21 |  | >3 |  |
| COc1cc(S(C)(=O)=O)ccc1-c1nc2cc3c(cc2[nH]1)C(C)(C)C(=O)N3 |  | 2 | Max (Rattus norvegicus [1]): 1.8 mHg s-1 |
| CN1C(=O)C(C)(C)c2cc3[nH]c(-c4ccncc4)nc3cc21 |  | >3 |  |
| CC1(C)C(=O)Nc2cc3[nH]c(-c4ccnnc4)cc3cc21 | 0.01 |  |  |
| CC1(C)C(=O)Nc2cc3[nH]c(-c4ccc(O)nn4)nc3cc21 |  | 0.07 | Max (Rattus norvegicus [1]): 3.3 mHg s-1 |
| CC1(C)C(=O)Nc2cc3[nH]c(-c4ccnc5ccccc45)nc3cc21 |  | 2 | Max (Rattus norvegicus [1]): 1.8 mHg s-1 |
| Cc1nc2cc3c(cc2[nH]1)C(C)(C)C(=O)N3 | 0.17 | 0.48 | Max (Felis catus [13]): 2.8 mHg/s; Max (Canis familiaris [14]): 2.2 mHg s-1; Time (Canis familiaris [10]): 30 min; Duration (Canis familiaris [5]): 3 h; ED1.5 (Canis familiaris [6]): 0.46 mg/kg; Max (Rattus norvegicus [7]): 3.5 |
| CC1(C)C(=O)Nc2cc3[nH]c(-c4ccc(-n5ccnc5)cc4)cc3cc21 |  | >3 |  |
| CC1(C)C(=O)Nc2cc3[nH]c(-c4ccncc4)nc3cc21 [ADIBENDAN] | 0.01 | 0.01 | Max (Canis familiaris [14]): 2 mHg s-1; Time (Canis familiaris [10]): 45 min; Max (Rattus norvegicus [11]): 3.7 mmHg s-1; Duration (Canis familiaris [5]): > 6 h; ED1.5 (Canis familiaris [6]): 0.2 mg/kg |
| COc1ccc(-c2nc3cc(C4=NNC(=O)CC4C)ccc3[nH]2)cc1 (stereo not given) [PIMOBENDAN] | 0.6 | 1.3 | Max (Canis familiaris [14]): 1.3 mHg s-1; Time (Canis familiaris [10]): 30 min; Max (Rattus norvegicus [1]): 2 mHg s-1; Duration (Canis familiaris [5]): 6 h; ED1.5 (Canis familiaris [6]): 1.1 mg/kg |

Source: ChEMBL document CHEMBL1124518, “Nonsteroidal cardiotonics. 2. The inotropic activity of linear, tricyclic 5-6-5 fused heterocycles” (1989)
